Reference: patent US20250144067A1, “PERSONALIZED STARVATION THERAPY FOR CANCER” (Faeth Therapeutics, Inc., priority 2021, published 2025)
Counter-ions that a name gives are not always drawn.

How the values were obtained:
[1] = system: NCI-H292 lung cancer cells; test: FDA drug screening, complete media vs cholesterol-free media without statin (TABLE 1); assay type: cell-based, human
[2] = system: NCI-H292 lung cancer cells; test: FDA drug screening, complete media vs cholesterol-free media with simvastatin (TABLE 2); assay type: cell-based, human; details: for Cholesterol-free media + simvastatin (0.04 μM) / Complete Media: NCI-H292 cells
[3] = Complete minus Cholesterol-free, greater than 0 enhanced anti-cancer activity, about 0 neutral, below 0 antagonists
[4] = NCI-H292 cells in cholesterol-free media without statin
[5] = NCI-H292 cells in complete media
[6] = FDA drug library screen, cholesterol-free media with simvastatin 0.04 μM
[7] = FDA drug library screen, complete media
[8] = complete media minus cholesterol-free media + simvastatin, >0 enhanced anti-cancer activity, about 0 neutral, <0 antagonist
[9] = Complete minus Cholesterol-free, greater than 0 enhanced anti-cancer activity, about 0 neutral, below 0 antagonist
[10] = NCI-H292 cells, FDA drug library screen, cholesterol-free media without statin
[11] = NCI-H292 cells, FDA drug library screen, complete media
[12] = complete media vs cholesterol-free media + simvastatin (0.04 μM), >0 enhanced anti-cancer activity, about 0 neutral, <0 antagonist
[13] = Complete minus Cholesterol-free, >0 enhanced anti-cancer activity, about 0 neutral, <0 antagonist
[14] = NCI-H292 cells, cholesterol-free media without statin
[15] = cholesterol-free media with simvastatin 0.04 μM, FDA drug library screen (TABLE 2)
[16] = complete media, FDA drug library screen (TABLE 2)
[17] = complete media minus cholesterol-free media + simvastatin (0.04 μM), >0 enhanced anti-cancer activity, about 0 neutral, <0 antagonist
[18] = complete media minus cholesterol-free media + simvastatin, […]
[19] = NCI-H292 cells, cholesterol-free media without statin, FDA drug library screen
[20] = cholesterol-free media with simvastatin 0.04 μM, cell growth value in FDA drug screen
[21] = complete media, cell growth value in FDA drug screen

With Trimipramine (maleate) the Difference [1, 3] was −0.51, the Cholesterol-free [1, 4] was 1.537 and the Complete [1, 5] was 1.022. The “Cholesterol-free media + simvastatin (0.04 μM)” value [2, 6] was 1.033, the “Complete Media” value [2, 7] was 1.193 and the Difference [2, 8] was 0.16.

CN1CC(O)C2=C/C(=N/NC(N)=O)C(=O)C=C21 (centres unmarked) [Carbazochrome] was tested, and the Difference [1, 9] was −0.14, the Cholesterol-free [1, 10] was 1.112 and the Complete [1, 11] was 0.9668. The “Cholesterol-free media + simvastatin (0.04 μM)” value [2, 6] was 1.082, the “Complete Media” value [2, 7] was 1.238 and the Difference [2, 8] was 0.16.

Molecule COc1c2occc2cc2ccc(=O)oc12 [Methoxsalen] has a Difference [1, 3] of −0.72, a Cholesterol-free [1, 4] of 1.514 and a Complete [1, 5] of 0.7902. For the same molecule, the “Cholesterol-free media + simvastatin (0.04 μM)” value ([2]; FDA library drug in cholesterol-free media with simvastatin 0.04 μM) was 1.34, the “Complete Media” value ([2]; FDA library drug in complete media) was 0.9575 and the Difference [2, 12] was −0.38.

For CCCc1cc(=O)[nH]c(=S)[nH]1 [Propylthiouracil], the Difference [1, 13] was −0.23, the Cholesterol-free [1, 14] was 1.082 and the Complete ([1]; NCI-H292 cells, complete media) was 0.8473. For the same molecule, the “Cholesterol-free media + simvastatin (0.04 μM)” value [2, 15] was 0.9529, the “Complete Media” value [2, 16] was 0.939 and the Difference [2, 17] was −0.01.

Work on Gemifloxacin (mesylate) yielded a Difference [1, 13] of −0.22, a Cholesterol-free [1, 14] of 1.118 and a Complete ([1]; NCI-H292 cells, complete media) of 0.9009. For the same molecule, the “Cholesterol-free media + simvastatin (0.04 μM)” value [2, 6] was 0.9496, the “Complete Media” value [2, 7] was 1.098 and the Difference [2, 8] was 0.15.

Cc1nnc(SCC2=C(C(=O)O)N3C(=O)[C@@H](NC(=O)Cn4cc(Cl)c(=O)c(Cl)c4)[C@H]3SC2)s1 [Cefazedone] showed a Difference ([1]; Complete minus Cholesterol-free, […]) of −0.67, a Cholesterol-free [1, 4] of 1.61 and a Complete [1, 5] of 0.9409. The “Cholesterol-free media + simvastatin (0.04 μM)” value [2, 6] was 1.153, the “Complete Media” value [2, 7] was 1.591 and the Difference [2, 18] was 0.44.

CN1CCCC(CC2c3ccccc3Sc3ccccc32)C1 (centres unmarked) [Metixene hydrochloride hydrate] showed a Difference [1, 13] of −0.25, a Cholesterol-free [1, 14] of 1.293 and a Complete ([1]; NCI-H292 cells, complete media) of 1.044. For the same molecule, the “Cholesterol-free media + simvastatin (0.04 μM)” value ([2]; drug in cholesterol-free media with simvastatin 0.04 μM) was 1.206, the “Complete Media” value ([2]; drug in complete media) was 1.036 and the Difference [2, 12] was −0.17.

CCCc1nc2c(C)cc(-c3nc4ccccc4n3C)cc2n1Cc1ccc(-c2ccccc2C(=O)O)cc1 [Telmisartan] gave a Difference [1, 13] of −0.06, a Cholesterol-free [1, 19] of 1.319 and a Complete ([1]; NCI-H292 cells, complete media, FDA drug library screen) of 1.255. For the same molecule, the “Cholesterol-free media + simvastatin (0.04 μM)” value [2, 20] was 0.8657, the “Complete Media” value [2, 21] was 0.906 and the Difference [2, 8] was 0.04.

For O=C(O)c1ccccc1O [Salicylic acid], the Difference [1, 9] was −0.09, the Cholesterol-free [1, 10] was 0.9773 and the Complete [1, 11] was 0.8829. The “Cholesterol-free media + simvastatin (0.04 μM)” value [2, 6] was 0.9788, the “Complete Media” value [2, 7] was 0.8703 and the Difference [2, 12] was −0.11.

With CC(=O)Oc1ccccc1C(=O)Nc1ncc([N+](=O)[O-])s1 [Nitazoxanide] the Cholesterol-free [1, 19] was 1.033, the Difference ([1]; complete vs cholesterol-free media, >0 enhanced anti-cancer activity, about 0 neutral, <0 antagonist) was 0.12 and the “Cholesterol-free media + simvastatin (0.04 μM)” value [2, 15] was 1.209. The “Complete Media” value [2, 16] was 1.209 and the Difference [2, 17] was 0.00.

Work on Tocofersolan yielded a Cholesterol-free [1, 14] of 0.7811, a Complete ([1]; NCI-H292 cells, complete media) of 0.4609 and a Difference ([1]; complete vs cholesterol-free media, […]) of −0.32. The “Cholesterol-free media + simvastatin (0.04 μM)” value [2, 6] was 0.3462, the “Complete Media” value [2, 7] was 0.6285 and the Difference [2, 18] was 0.28.

In the case of C[C@]12CC[C@@H]3c4ccc(O)cc4C[C@@H](CCCCCCCCC[S+]([O-])CCCC(F)(F)C(F)(F)F)[C@H]3[C@@H]1CC[C@@H]2O (some centres unmarked) [Fulvestrant], the Difference [1, 13] is reported as −0.29, the Cholesterol-free [1, 14] is reported as 1.364 and the Complete ([1]; NCI-H292 cells, complete media) is reported as 1.074. For the same molecule, the “Cholesterol-free media + simvastatin (0.04 μM)” value [2, 6] was 1.051, the “Complete Media” value [2, 7] was 0.9579 and the Difference [2, 12] was −0.09.

For O=C(Nc1cccc2c(=O)cc(-c3nnn[nH]3)oc12)c1ccc(OCCCCc2ccccc2)cc1 [Pranlukast (hemihydrate)], the Difference [1, 9] was −0.10, the Cholesterol-free [1, 10] was 1.075 and the Complete [1, 11] was 0.9755. The “Cholesterol-free media + simvastatin (0.04 μM)” value [2, 20] was 1.189, the “Complete Media” value [2, 21] was 1.285 and the Difference [2, 8] was 0.10.

Work on CCOc1nc2cccc(C(=O)O)c2n1Cc1ccc(-c2ccccc2-c2nc(=O)o[nH]2)cc1 [Azilsartan] yielded a Cholesterol-free [1, 14] of 1.417, a Complete ([1]; NCI-H292 cells, complete media) of 1.021 and a Difference ([1]; complete vs cholesterol-free media, greater than 0 enhanced anti-cancer activity, about 0 neutral, below 0 antagonists) of −0.40. For the same molecule, the “Cholesterol-free media + simvastatin (0.04 μM)” value [2, 6] was 1.196, the “Complete Media” value [2, 7] was 1.042 and the Difference [2, 12] was −0.15.
